Test results published in patent US20020037931A1, “Substituted nitrated catechols, their use in the treatment of some central and peripheral nervous system disorders and pharmaceutical compositions containing them” (priority 2000, published 2002).

How the values were obtained:
[1] = test system: COMT; assay: COMT activity (methylation of adrenaline to metanephrine) in rat liver homogenates; format: biochemical; conditions: rat liver homogenate; test compound 3 μM; means±SEM, n=4-8
[2] = test system: COMT; assay: COMT activity (methylation of adrenaline to metanephrine) in rat brain homogenates; format: biochemical; conditions: rat brain homogenate; test compound 100 nM; means±SEM, n=4-8
[3] = target: T1, COMT (Homo sapiens, UniProt P21964); assay: COMT activity in intact SK-N-SH cell monolayers; format: cell-based; conditions: SK-N-SH cells; test compound 100 nM; means±SEM, n=4-8
T1 construct: COMT activity was evaluated in cell monolayers by the ability to methylate adrenaline; host or cells: SK-N-SH cells
T1 sequence (P21964 1-271): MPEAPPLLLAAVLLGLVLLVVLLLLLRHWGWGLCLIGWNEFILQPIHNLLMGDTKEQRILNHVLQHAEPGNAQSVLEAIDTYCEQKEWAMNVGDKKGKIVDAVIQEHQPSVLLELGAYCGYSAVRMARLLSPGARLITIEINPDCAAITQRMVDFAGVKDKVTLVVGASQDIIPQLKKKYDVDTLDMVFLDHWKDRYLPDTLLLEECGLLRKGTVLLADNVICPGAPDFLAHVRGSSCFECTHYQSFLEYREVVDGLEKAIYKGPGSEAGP

[4] = test system: COMT; assay: Ex vivo liver COMT activity after administration by gastric tube; format: in vivo; conditions: rat liver homogenate
[5] = test system: COMT; assay: Ex vivo brain COMT activity after administration by gastric tube; format: in vivo, rat; conditions: for COMT activity (% of control), Brain: rat brain homogenate
[6] = 0.5 h after administration by gastric tube
[7] = 1 h after administration by gastric tube
[8] = 3 h after administration by gastric tube
[9] = 6 h after administration by gastric tube
[10] = 9 h after administration by gastric tube

Compound | COMT activity, Liver (% of control) [1] | COMT activity, Brain (% of control) [2] | COMT activity, SK-N-SH (% of control) [3] | other results
O=C(Cc1ccccc1)c1ccc(O)c(O)c1[N+](=O)[O-] [Compound 24, 1-(3,4-Dihydroxy-2-nitro-phenyl)-2-phenyl ethanone] | 0.7 ± 0.0 % of control | 7 ± 1 % of control | 24 ± 1 % of control | COMT activity (% of control), Liver [4, 6]: 6.2 ± 0.8 % of control; COMT activity (% of control), Liver [4, 7]: 8.4 ± 1.6 % of control; COMT activity (% of control), Liver [4, 8]: 61.9 ± 10.8 % of control; COMT activity (% of control), Liver [4, 9]: 91.6 ± 8.8 % of control; COMT activity (% of control), Liver [4, 10]: 125.9 % of control; COMT activity (% of control), Brain [5, 6]: 18.7 ± 1.6 % of control; COMT activity (% of control), Brain [5, 7]: 18.7 ± 0.6 % of control; COMT activity (% of control), Brain [5, 8]: 37.0 ± 5.9 % of control; COMT activity (% of control), Brain [5, 9]: 64.8 ± 3.7 % of control; COMT activity (% of control), Brain [5, 10]: 98.4 % of control; inhibition of brain COMT (in words) ([5]; after oral administration, rat): potent inhibitors of brain COMT; access to the brain / activity in the periphery (in words) ([5]; conclusion from ex vivo COMT inhibition, rat): limited access to the brain
CCCN1CCN(CCC(=O)c2ccc(O)c(O)c2[N+](=O)[O-])CC1 [Compound 39, 1-(3,4-Dihydroxy-2-nitro-phenyl)-3-(4-propyl-piperazin-1-yl)-propan-1-one] | 0.8 ± 0.2 % of control | 8 ± 0 % of control | 11 ± 0 % of control | 
CC1CCN(CCC(=O)c2ccc(O)c(O)c2[N+](=O)[O-])CC1 [Compound 33, 1-(3,4-Dihydroxy-2-nitro-phenyl)-3-(4-methyl-piperidin-1-yl)-propan-1-one] | 2.2 ± 0.3 % of control | 6 ± 0 % of control | 14 ± 0 % of control | 
O=C1CCCc2cc(O)c(O)c([N+](=O)[O-])c21 [Compound 1, 6,7-Dihydroxy-8-nitro-3,4-dihydro-2H-naphthalen-1-one] | 1.2 ± 0.2 % of control | 15 ± 4 % of control | 46 ± 1 % of control | 
CCN(CC)C(=O)C1CCCN(CCC(=O)c2ccc(O)c(O)c2[N+](=O)[O-])C1 (stereo not drawn) [Compound 31, 1-[3-(3,4-Dihydroxy-2-nitro-phenyl)-3-oxo-propyl]-piperidine-3-carboxylic acid diethylamide] | 1.7 ± 0.6 % of control | 8 ± 0 % of control | 13 ± 2 % of control | 
CCCC(=O)Oc1ccc(C(=O)Cc2ccccc2)c([N+](=O)[O-])c1OC(=O)CCC [Compound 47, Butyric acid, 6-butyryloxy-2-nitro-3-phenylacetyl-phenyl ester] | 0.6 ± 0.2 % of control | 0 ± 0 % of control | 1 ± 1 % of control | 
COc1cc(C=C2CCc3cc(O)c(O)c([N+](=O)[O-])c3C2=O)cc([N+](=O)[O-])c1O [Compound 11, 6,7-Dihydroxy-2-(4-hydroxy-3-methoxy-5-nitro-benzylidene)-8-nitro-3,4-dihydro-2H-naphthalen-1-one] | 1.1 ± 0.3 % of control | 32 ± 2 % of control | 47 ± 2 % of control | 
CC(=O)Oc1cc2c(c([N+](=O)[O-])c1OC(C)=O)C(=O)C(C)(C)CC2 [Compound 25, Acetic Acid, 3-Acetoxy-7,7-dimethyl-1-nitro-8-oxo-5,6,7,8-tetrahydro-naphthalen-2-yl Ester] | 1.7 ± 0.1 % of control | 19 ± 1 % of control | 39 ± 1 % of control | 
O=C1c2c(cc(O)c(O)c2[N+](=O)[O-])CC1CN1CCN(c2ccccc2)CC1 (stereo not drawn) [Compound 44, 5,6-Dihydroxy-7-nitro-2-(4-phenyl-piperazin-1-ylmethyl)-indan-1-one] | 0.6 ± 0.2 % of control | 10 ± 0 % of control | 9 ± 2 % of control | 
O=C(C=Cc1ccccc1)c1ccc(O)c(O)c1[N+](=O)[O-] [Compound 41, 1-(3,4-dihydroxy-2-nitro-phenyl)-3-phenyl-propenone] | 1.1 ± 0.2 % of control | 9 ± 1 % of control | 5 ± 0 % of control | 
CN(C)c1ccc(C=C2CCc3cc(O)c(O)c([N+](=O)[O-])c3C2=O)cc1 [Compound 9, 2-(4-Dimethylamino-benzylidene)-6,7-dihydroxy-8-nitro-3,4-dihydro-2H-naphthalen-1-one] | 9.0 ± 1.6 % of control | 47 ± 5 % of control | 8 ± 1 % of control | 
O=C(CCN1CCC(Cc2ccccc2)CC1)c1ccc(O)c(O)c1[N+](=O)[O-] [Compound 36, 3-(4-benzyl-piperidin-1-yl)-1-(3,4-Dihydroxy-2-nitro-phenyl)-propan-1-one] | 2.2 ± 0.4 % of control | 6 ± 0 % of control | 9 ± 2 % of control | 
CCOC(=O)Oc1ccc(C(=O)CCCc2ccccc2)c([N+](=O)[O-])c1OC(=O)OCC [Compound 51, Carbonic acid, 2-ethoxycarbonyloxy-3-nitro-4-(4-phenyl-butyryl)-phenyl ester ethyl ester] | 0.6 ± 0.3 % of control | 0 ± 0 % of control | 1 ± 0 % of control | 
O=C(CCN1CCCC2CCCCC21)c1ccc(O)c(O)c1[N+](=O)[O-] (stereo not drawn) [Compound 34, 1-(3,4-Dihydroxy-2-nitro-phenyl)-3-(octahydro-quinolin-1-yl)-propan-1-one] | 1.6 ± 0.2 % of control | 5 ± 0 % of control | 11 ± 2 % of control | 
O=C1c2c(cc(O)c(O)c2[N+](=O)[O-])CC1CN1CCOCC1 (stereo not drawn) [Compound 29, 5,6-Dihydroxy-2-morpholin-4-ylmethyl-7-nitro-indan-1-one] | 0.6 ± 0.0 % of control | 12 ± 1 % of control | 21 ± 1 % of control | 
CCCCC(=O)c1ccc(O)c(O)c1[N+](=O)[O-] [Compound 17, 1-(3,4-dihydroxy-2-nitro-phenyl)-pentan-1-one] | 0.4 ± 0.0 % of control | 8 ± 1 % of control | 24 ± 4 % of control | 
O=C1CCc2cc(O)c(O)c([N+](=O)[O-])c21 [Compound 2, 5,6-Dihydroxy-7-nitro-indan-1-one] | 1.3 ± 0.7 % of control | 9 ± 1 % of control | 24 ± 1 % of control | 
CC1CCCN(CCC(=O)c2ccc(O)c(O)c2[N+](=O)[O-])C1 (stereo not drawn) [Compound 32, 1-(3,4-Dihydroxy-2-nitro-phenyl)-3-(3-methyl-piperidin-1-yl)-propan-1-one] | 2.3 ± 0.2 % of control | 10 ± 0 % of control | 11 ± 2 % of control | 
CC(=O)Oc1ccc(C(=O)Cc2ccccc2)c([N+](=O)[O-])c1OC(C)=O [Compound 45, Acetic acid, 6-acetoxy-2-nitro-3-phenylacetyl-phenyl ester] | 0.7 ± 0.2 % of control | 0 ± 0 % of control | 7 ± 3 % of control | 
COc1cc(C=C2Cc3cc(O)c(O)c([N+](=O)[O-])c3C2=O)cc([N+](=O)[O-])c1O [Compound 10, 5,6-Dihydroxy-2-(4-hydroxy-3-methoxy-5-nitro-benzylidene)-7-nitro-indan-1-one] | 0.3 ± 0.1 % of control | 14 ± 1 % of control | 24 ± 2 % of control | 
CCOC(=O)Oc1ccc(C(=O)c2ccccc2)c([N+](=O)[O-])c1OC(=O)OCC [Compound 21, Carbonic acid, 4-benzoyl-2-ethoxycarbonyloxy-3-nitro-phenyl ester ethyl ester] | 0.3 ± 0.2 % of control | 11 ± 1 % of control | 1 ± 1 % of control | 
COc1ccc(C=C2Cc3cc(O)c(O)c([N+](=O)[O-])c3C2=O)cc1OC [Compound 7, 2-(3,4-Dimethoxy-benzylidene)-5,6-dihydroxy-7-nitro-indan-1-one] | 0.6 ± 0.3 % of control | 14 ± 1 % of control | 23 ± 1 % of control | 
